# Data taken from US20110009351A1, “SCREENING ASSAY TO IDENTIFY CORRECTORS OF PROTEIN TRAFFICKING DEFECTS” (Traffick Therepeutics Inc., priority 2007, published 2011).
# Counter-ions that a name gives are not always drawn.
# How the values were obtained:
# Type in all cases: cell-based
# ΔF508-CFTR [1] = target: T1, ΔF508-CFTR (Homo sapiens, UniProt P13569, DEL508-508); assay: iodide efflux assay in BHK cells expressing ΔF508-CFTR; design: which was then ligated into full length pNUT-CFTR linearized using Hpa1 and Pml1; expressed in transfected cells; details: 24 h
# Procedure: Experiments were performed by hand or with a robotic liquid handling system (BioRobot 8000, Qiagen, USA) using Qiagen 4.1 software. Cells were cultured in 24-well plates until they reached confluence in order to perform parallel experiments and comparison analysis. After treatment (or not) with a test compound, medium in each well was replaced with 1 ml of iodide loading buffer (in mM: 136 NaI, 3 KNO3, 2 Ca(NO3)2, 11 glucose and 20 Hepes pH 7.4) for 1 hour at 37° C. to permit the I′ to reach equilibrium. At the beginning of each experiment, the loading buffer was removed by aspiration and cells were washed eight times with efflux buffer (same as loading buffer except that NaI was replaced with 136 mM NaNO3) to remove extracellular I^− in each well. The loss of intracellular I^− was determined by removing the medium and replacing it with fresh efflux buffer every 1 min for up to 11 min. The first four aliquots were recovered at 1-minute intervals in an empty 24-well plate and used to establish a stable baseline in efflux buffer alone. A stimulation buffer (efflux buffer containing 50 μM genistein+10 μM forskolin) was then added and sampling continued with replacement by stimulation buffer. The iodide concentration of each aliquot was determined using an iodide-sensitive electrode (Orion Research Inc., Boston, Mass., USA or Ecomet) and converted to iodide content (i.e. the amount of iodide released during the 1 min interval). Curves were constructed by plotting concentration versus time. Data are presented as means±SEM.
# Iodide effluxes were performed using a robotic liquid handling system (BioRobot 8000, Qiagen, Valencia, Calif.) and Qiagen 4.1 software. Cells were cultured to confluence in 24-well plates. After treatment (or not) with a test compound, the medium in each well was replaced with 1 ml of iodide loading buffer: 136 mM NaI, 3 mM KNO3, 2 mM Ca(NO3)2, 11 mM glucose, 20 mM Hepes, pH 7.4 with NaOH) and incubated for 1 h at 37° C. At the beginning of each experiment, the loading buffer was removed by aspiration and cells were washed eight times with 300 μl efflux buffer (same as loading buffer except that NaI was replaced with 136 mM NaNO3) to remove extracellular I^−. Efflux was measured by replacing the medium with 300 μl fresh efflux buffer at 1 min intervals for up to 11 min. The first four aliquots were used to establish a stable baseline, then buffer containing 10 μM forskolin+50 μM genistein was used to stimulate CFTR activity. Iodide concentration was measured in each aliquot (300 μl) using an iodide-sensitive electrode (Orion Research Inc., Boston, Mass.). Relative iodide efflux rate was calculated using the difference between maximum (peak) iodide concentration during stimulation and minimum iodide concentration before stimulation (in μM/min). […]
# ΔF508-CFTR [2] = target: T1, ΔF508-CFTR; design: which was then ligated into full length pNUT-CFTR linearized using Hpa1 and Pml1; expressed in transfected cells
# In short: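 BHK cells stably expressing 3HA-tagged ΔF508-CFTR (tags in fourth extracellular loop) treated with compound at 20 μM final for 24 h at 37° C. Surface ΔF508-CFTR measured on fixed, non-permeabilised cells by anti-HA/FITC immunofluorescence (488/510 nm), relative to untreated-well background; hits retested in duplicate, intrinsically fluorescent compounds excluded.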
# ΔF508-CFTR [3] = target: T1, ΔF508-CFTR; assay: iodide efflux assay in CFBE41o− airway epithelial cells; design: expressed in transfected cells; host or cells: CFBE41o- (ΔF508/ΔF508) transduced with ΔF508-CFTR, TranzVector lentivirus, provided by J. P. Clancy; details: compared with BHK
# Procedure: Experiments were performed by hand or with a robotic liquid handling system (BioRobot 8000, Qiagen, USA) using Qiagen 4.1 software. Cells were cultured in 24-well plates until they reached confluence in order to perform parallel experiments and comparison analysis. After treatment (or not) with a test compound, medium in each well was replaced with 1 ml of iodide loading buffer (in mM: 136 NaI, 3 KNO3, 2 Ca(NO3)2, 11 glucose and 20 Hepes pH 7.4) for 1 hour at 37° C. to permit the I′ to reach equilibrium. […] The loss of intracellular I^− was determined by removing the medium and replacing it with fresh efflux buffer every 1 min for up to 11 min. […] The iodide concentration of each aliquot was determined using an iodide-sensitive electrode (Orion Research Inc., Boston, Mass., USA or Ecomet) and converted to iodide content (i.e. the amount of iodide released during the 1 min interval). […]
# Iodide effluxes were performed using a robotic liquid handling system (BioRobot 8000, Qiagen, Valencia, Calif.) and Qiagen 4.1 software. […] Efflux was measured by replacing the medium with 300 μl fresh efflux buffer at 1 min intervals for up to 11 min. […] Iodide concentration was measured in each aliquot (300 μl) using an iodide-sensitive electrode (Orion Research Inc., Boston, Mass.). […]
# T1 sequence (P13569 with tags, fused parts or gaps DEL508-508): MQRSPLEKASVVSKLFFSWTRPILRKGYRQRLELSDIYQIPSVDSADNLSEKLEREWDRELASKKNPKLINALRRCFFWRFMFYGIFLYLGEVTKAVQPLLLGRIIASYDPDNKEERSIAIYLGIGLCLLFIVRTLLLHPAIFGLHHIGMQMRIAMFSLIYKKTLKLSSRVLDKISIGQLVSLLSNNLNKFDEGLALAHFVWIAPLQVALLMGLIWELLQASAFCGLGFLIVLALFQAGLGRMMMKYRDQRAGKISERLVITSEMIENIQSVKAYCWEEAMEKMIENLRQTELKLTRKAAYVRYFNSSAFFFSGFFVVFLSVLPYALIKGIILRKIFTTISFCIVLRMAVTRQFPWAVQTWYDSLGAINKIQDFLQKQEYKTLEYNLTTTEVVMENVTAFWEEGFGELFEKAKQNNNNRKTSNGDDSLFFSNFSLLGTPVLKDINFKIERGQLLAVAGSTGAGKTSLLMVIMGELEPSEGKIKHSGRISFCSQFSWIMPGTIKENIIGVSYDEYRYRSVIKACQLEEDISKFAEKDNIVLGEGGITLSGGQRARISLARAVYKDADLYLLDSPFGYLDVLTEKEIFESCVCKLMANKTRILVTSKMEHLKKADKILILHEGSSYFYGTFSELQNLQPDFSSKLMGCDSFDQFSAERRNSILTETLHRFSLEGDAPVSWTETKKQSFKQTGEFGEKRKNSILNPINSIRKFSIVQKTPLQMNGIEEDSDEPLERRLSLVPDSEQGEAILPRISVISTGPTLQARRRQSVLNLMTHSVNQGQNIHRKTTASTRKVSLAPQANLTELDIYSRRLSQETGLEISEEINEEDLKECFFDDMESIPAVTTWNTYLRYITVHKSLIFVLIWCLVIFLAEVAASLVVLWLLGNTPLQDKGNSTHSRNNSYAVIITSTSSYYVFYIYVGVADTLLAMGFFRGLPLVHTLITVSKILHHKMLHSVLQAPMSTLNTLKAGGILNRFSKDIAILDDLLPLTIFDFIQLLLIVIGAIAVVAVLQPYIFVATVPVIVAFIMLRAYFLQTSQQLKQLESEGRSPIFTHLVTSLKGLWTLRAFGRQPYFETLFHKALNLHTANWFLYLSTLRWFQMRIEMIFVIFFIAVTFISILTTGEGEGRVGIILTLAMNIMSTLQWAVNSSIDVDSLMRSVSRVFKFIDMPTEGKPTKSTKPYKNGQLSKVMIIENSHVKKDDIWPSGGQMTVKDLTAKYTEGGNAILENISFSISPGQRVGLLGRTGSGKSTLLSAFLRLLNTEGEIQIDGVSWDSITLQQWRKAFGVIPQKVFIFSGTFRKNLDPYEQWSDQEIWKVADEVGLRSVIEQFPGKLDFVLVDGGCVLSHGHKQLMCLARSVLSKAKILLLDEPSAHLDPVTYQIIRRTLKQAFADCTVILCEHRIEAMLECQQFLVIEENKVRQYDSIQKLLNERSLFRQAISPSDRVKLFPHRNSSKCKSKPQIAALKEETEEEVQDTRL
smiles,measurement,setting,value
"O=C(OCC(O)CO)c1ccccc1Nc1ccnc2cc(Cl)ccc12 (stereo not drawn) [Glafenine hydrochloride, 2-[(7-chloro-4-quinolinyl)amino]benzoic acid 2,3-dihydroxypropyl ester]",increase of cAMP-stimulated iodide efflux response,"ΔF508-CFTR [1]; 10 μM, 10 μM forskolin+50 μM genistein, versus vehicle",3.3 fold
same,concentration required for significant restoration of ΔF508-CFTR function,"ΔF508-CFTR [1]; iodide efflux, BHK",1 to 10 µM
same,"ΔF508-CFTR surface expression increase, normalized to BHK cells expressing wild-type CFTR","ΔF508-CFTR [2]; 10 μM, 24 h, compared with vehicle alone",40%
same,hit in screen (class letter),"ΔF508-CFTR [2]; Prestwick library, initial corrector assay, BHK cells","W (Medium and weak hits were defined as compounds giving a cell fluorescence signal that was between 2 and 3 or 1 and 2 standard deviations, respectively, above untreated control wells)"
same,hit in screen (score),"ΔF508-CFTR [2]; Prestwick library, initial corrector assay, standard deviations above untreated controls",1.3
same,rescue of iodide efflux,ΔF508-CFTR [3],more striking
